Measurements: patent publication US20200163984A1, “USE OF ISOVALERYL SPIRAMYCIN I, II AND/OR III IN MANUFACTURING MEDICAMENT FOR TREATING AND/OR PREVENTING TUMOR, AND MEDICAMENT” (SHENYANG FUYANG PHARMACEUTICAL TECHNOLOGY CO., LTD., priority 2017, published 2020)

How the values were obtained:
[1] = tested on: transplanted tumor of human lymphoma cell U937; experiment: U937 transplanted tumor in nude mice; details: for Tumor Volume (mm3) (d 1): d1
Method: (§1) U937 cells in a logarithmic growth phase were taken and subjected to a trypan blue exclusion experiment showing that the cell viability was more than 95%, then the cells were subjected to trypsinization, centrifugation, and supernatant removal. Then cell concentration was adjusted to 1×10^7/ml with matrigel, then each nude mouse was inoculated subcutaneously with 0.2 ml of cells at its right armpit and recorded as the first day of inoculation. When the tumor grows to be greater than or equal to 100 mm^3, the mice were randomly divided into 11 groups with 6 mice in each group: a model group, a cyclophosphamide group, isovaleryl spiramycin I groups with doses of 25, 50 and 100 mg/kg, isovaleryl spiramycin II groups with doses of 25, 50 and 100 mg/kg, and isovaleryl spiramycin III groups with doses of 25, 50 and 100 mg/kg. Each group was continuously administered intragastrically for 30 days with a dose of 20 ml/kg. The mice were sacrificed the next day after drug withdrawal and the indicators were tested. The long diameter and short diameter of the tumor, and the body weight of each mouse were recorded every 3 days from drug administration to nude mouse sacrifice.
(§2) The body weight of the nude mice and the long diameter (a) and short diameter (b) of the transplanted tumor were measured every 3 days, and the tumor volume (v), relative tumor volume (RTV) and relative tumor proliferation rate (T/C) are calculated respectively according to the following formulas, wherein V=a×b^2/2; RTV=V/V0 (V0 is the tumor volume before administration, V is the tumor volume before sacrifice), and T/C (%)=treatment group RTV/model control group RTV×100%.
(§3) Each mouse was weighed and sacrificed. After the tumor was completely stripped off from the body of the mouse, the non-tumor tissues such as blood stains and fat were removed to weigh the tumor and calculate the tumor growth inhibition rate. The average tumor weight of each group of mice is used as an indicator of efficacy. Tumor growth inhibition rate (%)=(1−the average tumor weight of the treatment group/the average tumor weight of the model group)×100%.

[2] = tested on: transplanted tumor of human thyroid cancer cell TPC-1; experiment: TPC-1 transplanted tumor in nude mice; details: for Tumor Volume (mm3) (d30): d 30
Method: as §1, with “Then” for “U937 cells in a logarithmic growth phase were taken and subjected to a trypan blue exclusion experiment showing that the cell viability was more than 95%, then the cells were subjected to trypsinization, centrifugation, and supernatant removal. Then”, “group:” for “group: a model group, a cyclophosphamide group,”
as §2, §3

[3] = Thymus index and spleen index of Lewis lung cancer tumor-bearing mice; details: n = 6
Method: In the Lewis lung cancer model, the mice inoculated with the tumor were randomly divided into groups with 10 mice in each group the next day of inoculation. The groups included: a model control group, a positive drug cyclophosphamide control group (CTX, 30 mg/kg), isovaleryl spiramycin I groups with doses of 13, 26 and 52 mg/kg; isovaleryl spiramycin II groups with doses of 13, 26 and 52 mg/kg; isovaleryl spiramycin III groups with doses of 13, 26 and 52 mg/kg. Each group was continuously administered intragastrically for 15 days with a dose of 20 ml/kg.

[4] = U937, high dose (100 mg/kg in method) i.g. 30 days
[5] = U937, low dose (25 mg/kg in method) i.g. 30 days
[6] = U937, medium dose (50 mg/kg in method) i.g. 30 days
[7] = TPC-1, high dose (100 mg/kg in method) i.g. 30 days
[8] = TPC-1, low dose (25 mg/kg in method) i.g. 30 days
[9] = TPC-1, medium dose (50 mg/kg in method) i.g. 30 days

CO[C@@H]1[C@@H](O[C@@H]2O[C@H](C)[C@@H](O[C@H]3C[C@@](C)(O)[C@@H](OC(=O)CC(C)C)[C@H](C)O3)[C@H](N(C)C)[C@H]2O)[C@@H](CC=O)C[C@@H](C)[C@@H](O[C@H]2CC[C@H](N(C)C)[C@@H](C)O2)/C=C/C=C/C[C@@H](C)OC(=O)C[C@H]1O [Isovaleryl spiramycin I, isovaleryl spiramycin I]
Relative Tumor Proliferation Rate (T/C) [1, 4]: 35.25% | tumor growth inhibition rate [1, 4]: 65.03% | Relative Tumor Proliferation Rate (T/C) [1, 5]: 68.65% | tumor growth inhibition rate [1, 5]: 41.73% | tumor volume and relative tumor volume compared with the model group ([1]; U937, low, medium and high doses, P<0.05): significantly lower | Relative Tumor Proliferation Rate (T/C) [1, 6]: 39.74% | tumor growth inhibition rate [1, 6]: 50.73% | Inhibition Rate (%) ([1]; U937 nude mice, 12.5 mg/kg): 41.73% | Relative Tumor Proliferation Rate (T/C) ([1]; U937 nude mice, 12.5 mg/kg): 68.65% | Relative Tumor Volume (RTV) ([1]; U937 nude mice, 12.5 mg/kg): 11.70 ± 3.59 | Tumor Weight ([1]; U937 nude mice, 12.5 mg/kg): 1.13 ± 0.60 g | Tumor Volume (mm3) (d 1) ([1]; U937 nude mice, 12.5 mg/kg): 108.43 ± 6.49 mm3 | Tumor Volume (mm3) (d30) ([1]; U937 nude mice, 12.5 mg/kg): 1270.43 ± 435.28 mm3 | Inhibition Rate (%) ([1]; U937 nude mice, 25 mg/kg): 50.73% | Relative Tumor Proliferation Rate (T/C) ([1]; U937 nude mice, 25 mg/kg): 39.74% | Relative Tumor Volume (RTV) ([1]; U937 nude mice, 25 mg/kg): 6.77 ± 0.57 | Tumor Weight ([1]; U937 nude mice, 25 mg/kg): 0.95 ± 0.42 g | Tumor Volume (mm3) (d 1) ([1]; U937 nude mice, 25 mg/kg): 108.61 ± 9.06 mm3 | Tumor Volume (mm3) (d30) ([1]; U937 nude mice, 25 mg/kg): 734.22 ± 76.87 mm3 | Inhibition Rate (%) ([1]; U937 nude mice, 50 mg/kg): 65.03% | Relative Tumor Proliferation Rate (T/C) ([1]; U937 nude mice, 50 mg/kg): 35.25% | Relative Tumor Volume (RTV) ([1]; U937 nude mice, 50 mg/kg): 6.01 ± 2.26 | Tumor Weight ([1]; U937 nude mice, 50 mg/kg): 0.68 ± 0.09 g | Tumor Volume (mm3) (d 1) ([1]; U937 nude mice, 50 mg/kg): 109.98 ± 5.88 mm3 | Tumor Volume (mm3) (d30) ([1]; U937 nude mice, 50 mg/kg): 660.17 ± 37.49 mm3 | mouse weight compared with the model group ([1]; mouse, in vivo): no significant changes | Body Weight (g) (d1) ([1]; mouse, in vivo, 12.5 mg/kg): 21.19 ± 0.66 g | Body Weight (g) (d30) ([1]; mouse, in vivo, 12.5 mg/kg): 21.16 ± 0.74 g | Body Weight (g) (d1) ([1]; mouse, in vivo, 25 mg/kg): 21.28 ± 0.52 g | Body Weight (g) (d30) ([1]; mouse, in vivo, 25 mg/kg): 21.01 ± 0.68 g | Body Weight (g) (d1) ([1]; mouse, in vivo, 50 mg/kg): 20.64 ± 0.39 g | Body Weight (g) (d30) ([1]; mouse, in vivo, 50 mg/kg): 20.94 ± 0.77 g | Relative Tumor Proliferation Rate (T/C) [2, 7]: 28.11% | tumor growth inhibition rate [2, 7]: 67.49% | Relative Tumor Proliferation Rate (T/C) [2, 8]: 65.45% | tumor growth inhibition rate [2, 8]: 23.88% | tumor volume and relative tumor volume compared with the model group ([2]; TPC-1, low, medium and high doses, P<0.05): significantly lower | Relative Tumor Proliferation Rate (T/C) [2, 9]: 43.43% | tumor growth inhibition rate [2, 9]: 57.28% | Inhibition Rate (%) ([2]; dose 25 mg/kg): 23.88% | Relative Tumor Proliferation Rate (T/C) ([2]; dose 25 mg/kg): 65.45% | Relative Tumor Volume (RTV) ([2]; dose 25 mg/kg): 10.77 ± 2.47 | Tumor Weight ([2]; dose 25 mg/kg): 1.84 ± 0.25 g | Tumor Volume (mm3) (d 1) ([2]; dose 25 mg/kg): 115.05 ± 9.93 mm3 | Tumor Volume (mm3) (d30) ([2]; dose 25 mg/kg): 1249.28 ± 337.45 mm3 | Inhibition Rate (%) ([2]; dose 50 mg/kg): 57.28% | Relative Tumor Proliferation Rate (T/C) ([2]; dose 50 mg/kg): 43.43% | Relative Tumor Volume (RTV) ([2]; dose 50 mg/kg): 7.15 ± 3.19 | Tumor Weight ([2]; dose 50 mg/kg): 1.03 ± 0.44 g | Tumor Volume (mm3) (d 1) ([2]; dose 50 mg/kg): 119.45 ± 4.30 mm3 | Tumor Volume (mm3) (d30) ([2]; dose 50 mg/kg): 847.07 ± 356.87 mm3 | Inhibition Rate (%) ([2]; dose 100 mg/kg): 67.49% | Relative Tumor Proliferation Rate (T/C) ([2]; dose 100 mg/kg): 28.11% | Relative Tumor Volume (RTV) ([2]; dose 100 mg/kg): 4.63 ± 3.34 | Tumor Weight ([2]; dose 100 mg/kg): 0.79 ± 0.43 g | Tumor Volume (mm3) (d 1) ([2]; dose 100 mg/kg): 112.69 ± 11.49 mm3 | Tumor Volume (mm3) (d30) ([2]; dose 100 mg/kg): 490.15 ± 322.14 mm3 | mouse weight compared with the model group ([2]; mouse, in vivo): no significant changes | Body Weight (g) (d1) ([2]; mouse, in vivo, 25 mg/kg): 21.75 ± 1.23 g | Body Weight (g) (d30) ([2]; mouse, in vivo, 25 mg/kg): 24.41 ± 1.32 g | Body Weight (g) (d1) ([2]; mouse, in vivo, 50 mg/kg): 21.53 ± 1.43 g | Body Weight (g) (d30) ([2]; mouse, in vivo, 50 mg/kg): 25.77 ± 1.10 g | Body Weight (g) (d1) ([2]; mouse, in vivo, 100 mg/kg): 21.76 ± 1.08 g | Body Weight (g) (d30) ([2]; mouse, in vivo, 100 mg/kg): 24.12 ± 1.20 g | Spleen Index (%) ([3]; dose 13 mg/kg): 0.72 ± 0.21% | Thymus Index (%) ([3]; dose 13 mg/kg): 0.12 ± 0.03% | Spleen Index (%) ([3]; dose 26 mg/kg): 0.62 ± 0.15% | Thymus Index (%) ([3]; dose 26 mg/kg): 0.13 ± 0.04% | Spleen Index (%) ([3]; dose 52 mg/kg): 0.77 ± 0.14 % | Thymus Index (%) ([3]; dose 52 mg/kg): 0.12 ± 0.06%
